# In US4004008A, “O-Tertiary amino-alkyl-N-benzoyl tyrosil amides” (priority 1974, dated 1977):
# Legend:
# [1] = tested on: intestinal transit of the charcoal; experiment: Vegetable carbon (charcoal) intestinal transit test in vivo; set-up: species or system rat; conditions: i.v., rat, charcoal test, 2 hours; for ED50: Rattus norvegicus, iv, 2 h, read-out: Antisp. activity in transit test: ED50
# Procedure: B. The vegetable carbon method in vivo (charcoal method) which consists of administering by oral means to rats, which have fasted for 24 hours, 0.3ml/per rate of a mixture consisting of: 10g of charcoal and 5 g of gum arabic suspended in a volume of 100 cc of H2 O as well as at the same time the substance being studied, accordingly as desired, generally i.v., s.c., oral. After two hours the animals are killed and those are taken to be negative in which the charcoal has reached the first portion of the colon and the others positive, in the sense that the substance administered has slowed down the intestinal transit of the charcoal.
# In effect the animals treated with a physiological solution (checks) are all negative after two hours.
# D. I.T.1 is the therapeutic index under the profile of the antispastic activity in vivo, and it is obtained by recording the DL50 (column 2) with the ED50 of the charcoal test (column 3).
# [2] = tested on: ileum of a cavy (BaCl2 spasm); experiment: Antispastic activity in vitro, Magnus method, cavy ileum stimulated with BaCl2; format: cell-based; conditions: ratio to papaverine = 1; Table 1; 37°
# Procedure: C. The method in vitro is that of Magnus, with the ileum of the cavy, and is in common use for all evaluations. It consists of extracting the ileum from the cavy and placing it in a receptacle which contains nutritive liquid, suitably oxygenated, and registering the movements of the organ which remains alive for several hours if maintained at a temperature of 37°. According to the traditional method followed by us, BaCl2 is put into the bath as a spasmisant: the reaction is a violent contraction of the organ. This contraction can be prevented by adding beforehand pharmaceuticals which inhibit spasms, and in this case our compounds.
# The values recorded are expressed as relation between papaverine and the ED50 of our compounds. (As is known, the ED50 is the dose which results in a 50% reduction in spastic contraction).
# E. I.T.2 is the therapeutic index under the profile of the antispastic activity in vitro and is given by the product between the in vitro antispastic activity index (column 4) and the corresponding DL50 (column 2).
# rat = experiment: Acute toxicity (DL50) i.v. in rat; format: in vivo; conditions: dose causing death in 50% of the animals
# Procedure: (§1) In this table (n. 1) there are recorded the compounds described in the examples with their relative serial numbers, the acute toxicity, the antispastic activity observed in two experimental tests, one "in vivo" and one "in vitro". There are moreover recorded two therapeutic indices which take account of the toxicity of these compounds in relation to their in vivo and in vitro activity. More precisely:
# (§2) A. DL50 which, as is known, is the quantity of the substance expressed in mg/kg of animal weight, capable of causing death in 50% of the animals treated.
# [3] = Acute toxicity (DL50) i.v. in rat; format: in vivo; conditions: in vivo, iv, dose causing death in 50% of the animals
# Procedure: as §1, §2
Compound,Antisp. activity in transit test: ED50 ([1]; 120 min) [mg/kg],Antisp. activity in vitro on the ileum of a cavy by Stim. BaCl2: ED50 pap./ED50 CR [2],DL50 in a rat (rat) [mg/kg],Antisp. activity in transit test: ED50 [1],ED50 [1] [mg/kg],LD50 [3] [mg/kg]
"CCCN(CCC)C(=O)C(Cc1ccc(OCCCN(C)C)cc1)NC(=O)c1ccccc1 (racemic) [CR 607, O-(3-dimethylamino-propyl)-N-benzoyl-DL-tyrosil-di-n-propylamide]",26.7,0.41,32.4,,,
"CCCN(CCC)C(=O)C(Cc1ccc(OCCN(C)C)cc1)NC(=O)c1ccc(C)cc1 (racemic) [CR 615, O-(2-dimethylamino-ethyl)-N-toluoyl-DL-tyrosil-di-n-propylamide]",,0.69,48.1,inactive,,
"CCCN(CCC)C(=O)C(Cc1ccc(OCCN2CCCC2)cc1)NC(=O)c1ccc(C)cc1 (racemic) [CR 650, O-(2-pyrrolidil-N'-ethyl)-N-toluoyl-DL-tyrosil-di-n-propylamide]",,1.17,17.5,18.4 mg/kg,,
"CCCCN(CCCC)C(=O)C(Cc1ccc(OCCCN2CCN(C)CC2)cc1)NC(=O)c1ccccc1Cl (racemic) [CR 731, O-[3-(N""-methyl-piperazine)-N'-propyl]-N-(o-chloro-benzoyl)-DL-tyrosil-di-n-butylamide]",,1.75,61,39.4 mg/kg,,
"CCN(CC)CCOc1ccc(CC(NC(=O)c2ccccc2)C(=O)N(CC)CC)cc1 (racemic) [CR 734, O-(2-diethylamino-ethyl)-N-benzoyl-DL-tyrosil-di-ethylamide]",,0.52,,,33.4,62.2
"CCN(CC)C(=O)C(Cc1ccc(OCCN2CCN(C)CC2)cc1)NC(=O)c1ccccc1 (racemic) [CR 736, O-[2-(N""-methyl-piperazine)-N'-ethyl]-N-benzoyl-DL-tyrosildiethylamide]",,0.04,,,39.6,102
"CCN(CC)CCOc1ccc(CC(NC(=O)c2ccccc2)C(=O)N(C)C)cc1 (racemic) [CR 738, O-(2-diethylamino-ethyl)-N-benzoyl-DL-tyrosil-di-methylamide]",,0.14,,,50.6,85.3
"CCN(CC)CCOc1ccc(CC(NC(=O)c2ccccc2)C(N)=O)cc1 (racemic) [CR 740, O-(2-dietylamino-ethyl)-N-benzoyl-DL-tyrosil-amide]",,0.36,,inactive,,102
"CCCCNC(=O)C(Cc1ccc(OCCN(CC)CC)cc1)NC(=O)c1ccccc1 (racemic) [CR 786, O-(2-diethylamine-ethyl)-N-benzoyl-DL-tyrosil-n-butylamide]",,0.17,,,34.3,38
"CCCN(CCC)C(=O)C(Cc1ccc(OCCN(CC)CC)cc1)NC(=O)c1ccc(C)cc1 (racemic) [CR 807, O-(2-diethylamino-ethyl)-N-toluoyl-DL-tyrosil-di-n-propylamide]",,0.34,31.5,21 mg/kg,,
"CCCCNC(=O)C(Cc1ccc(OCCN2CCCC2)cc1)NC(=O)c1ccc(Cl)cc1 (racemic) [CR 812, O-(2'-pyrrolidil-N'-ethyl)-N-(p-chloro-benzoyl)-DL-tyrosil-n-butylamide]",,1.03,,,21,27
"CCCNC(=O)C(Cc1ccc(OCCN2CCCC2)cc1)NC(=O)c1ccccc1 (racemic) [CR 821, O-(2-pyrrolidil-N'-ethyl)-N-benzoyl-DL-tyrosil-n-propylamide]",,0.13,,,15.6,53
"CCCN(CCC)CCOc1ccc(CC(NC(=O)c2ccccc2)C(=O)N(CCC)CCC)cc1 (racemic) [CR 823, O-(2-di-n-propylamino-ethyl)-N-benzoyl-DL-tyrosil-di-n-propylamide]",,1.48,,,16.2,23
"CCCCCCNC(=O)C(Cc1ccc(OCCN2CCCC2)cc1)NC(=O)c1ccccc1 (racemic) [CR 825, O-(2-pyrrolidil-N'-ethyl)-N-benzoyl-DL-tyrosil-n-hexylamide]",,1.8,,,14.8,42
"CCCCCCNC(=O)C(Cc1ccc(OCCN2CCCC2)cc1)NC(=O)c1ccc(C)cc1 (racemic) [CR 826, 0-(2-pyrrolidil-N'-ethyl)-N-toluoyl-DL-tyrosil-n-hexylamide]",,1.2,41,17.0 mg/kg,,
"CCCN(CCC)C(=O)C(Cc1ccc(OCCN(CC)CC)cc1)NC(=O)OCc1ccccc1 (racemic) [CR 832, O-(2-diethylamino-ethyl)-N-carbobenzoxy-DL-tyrosil-di-n-propylamide]",,1.40,,,16.3,32.4
"CN(C)CCOc1ccc(C[C@H](NC(=O)OCc2ccccc2)C(=O)N2CCOCC2)cc1 [CR 606, O-(2-dimethylamino-ethyl)-N-carbobenzoxy-L-tyrosil-morpholylamide]",,0.19,,inactive,,128
"CCNC(=O)C(Cc1ccc(OCCN(C)C)cc1)NC(=O)OCc1ccccc1 [CR 610, O-(2-dimethylamino-ethyl)-N-carbobenzoxy-L-tyrosil-ethylamide]",,0.13,,,58.1,139
"CN(C)CCOc1ccc(C[C@H](NC(=O)OCc2ccccc2)C(=O)NCc2ccccc2)cc1 [CR 612, O-(2-dimethylamino-ethyl)-N-carbobenzoxy-L-tyrosil-benzylamide]",,0.35,,,23,87.7
CCCN(CCC)C(=O)C(Cc1ccc(OCCN(C)C)cc1)NC(=O)OCc1ccc([N+](=O)[O-])cc1 (centres unmarked) [CR 613],,0.68,,,58.7,100
"CCCN(CCC)C(=O)C(Cc1ccc(OCCN(CC)CC)cc1)NC(=O)OCc1ccccc1 [CR 627, O-(2-diethylamino-ethyl)-N-carbobenzoxy-D-tyrosil-di-n-propylamide]",20.8,1.44,34.0,,,
"CCCN(CCC)C(=O)C(Cc1ccc(OCCN(CC)CC)cc1)NC(=O)c1ccccc1 [CR 804, O-(2-diethylamino-ethyl)-N-benzoyl-L-tyrosil-di-n-propylamide]",,0.89,,,16.1,33.5
"CCCN(CCC)C(=O)C(Cc1ccc(OCCN(CC)CC)cc1)NC(=O)OCc1ccccc1 [CR 830, O-(2-diethylamino-ethyl)-N-carbobenzoxy-L-tyrosil-di-n-propylamide]",,1.49,,,17.3,31.5
"CCCN(CCC)C(=O)C(Cc1ccc(OCCN(CC)CC)cc1)NC(=O)c1ccc(Cl)cc1 [CR 831, O-(2-diethylamino-ethyl)-N-(p-chloro-benzoyl)-L-tyrosil-din-propylamide]",,1.30,,,24.4,35
O-(2-diisopropylamino-ethyl)-N-toluoyl-DL-tyrosil-n-butylamide [CR 709],,,40,36.1 mg/kg,,
O-(3-pyrrolidil-N'-propyl)-N-toluoyl-DL-tyrosil-n-butylamide [CR 797],,1.32,20.6,12.0 mg/kg,,
